Assay results as given in ChEMBL document CHEMBL1147276, “Novel Acetylenic Acids from the Root Bark of Paramacrolobium caeruleum: Inhibitors of 3-Hydroxy-3-methyl-glutaryl Coenzyme A Reductase” (J Nat Prod, 1989).

Biological target: T1, 3-hydroxy-3-methylglutaryl-coenzyme A reductase (Homo sapiens, UniProt P04035)
T1 sequence (P04035 whole entry): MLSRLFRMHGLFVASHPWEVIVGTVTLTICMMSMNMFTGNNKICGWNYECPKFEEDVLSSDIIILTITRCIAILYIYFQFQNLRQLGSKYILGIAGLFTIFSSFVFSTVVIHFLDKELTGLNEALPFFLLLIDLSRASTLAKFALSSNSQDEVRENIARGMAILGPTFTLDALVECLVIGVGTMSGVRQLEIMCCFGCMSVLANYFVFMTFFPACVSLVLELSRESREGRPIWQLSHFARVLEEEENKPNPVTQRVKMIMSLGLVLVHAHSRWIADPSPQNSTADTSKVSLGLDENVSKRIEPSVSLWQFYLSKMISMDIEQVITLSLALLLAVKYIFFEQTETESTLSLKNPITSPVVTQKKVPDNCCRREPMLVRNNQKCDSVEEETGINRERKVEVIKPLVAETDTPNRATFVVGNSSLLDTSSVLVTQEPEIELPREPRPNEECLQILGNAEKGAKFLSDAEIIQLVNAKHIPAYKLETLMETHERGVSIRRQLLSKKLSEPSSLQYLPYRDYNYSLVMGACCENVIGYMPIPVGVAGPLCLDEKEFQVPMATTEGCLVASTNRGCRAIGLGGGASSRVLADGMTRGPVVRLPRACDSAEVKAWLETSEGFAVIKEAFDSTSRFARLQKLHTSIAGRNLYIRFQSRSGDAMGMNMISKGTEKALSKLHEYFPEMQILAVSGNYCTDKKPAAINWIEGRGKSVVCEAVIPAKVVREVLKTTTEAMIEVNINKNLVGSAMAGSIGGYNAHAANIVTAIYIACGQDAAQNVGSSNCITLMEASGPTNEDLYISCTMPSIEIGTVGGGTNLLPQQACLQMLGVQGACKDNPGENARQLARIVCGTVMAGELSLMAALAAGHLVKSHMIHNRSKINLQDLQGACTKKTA
Experiment: Inhibition of human HMGCoA reductase
Settings: not given; call rule not given here

| SMILES | IC50 |
| --- | --- |
| CCCCCCCC/C=C\CCCCCCCC(=O)O [OLEIC ACID] | Not Active |
| CCCCCCCCCCCCCCCCCC(=O)O [STEARIC ACID] | Not Active |

Same assay, conditions: read-out: IC50

| SMILES | IC50 |
| --- | --- |
| CCCCCCCCC#CC#CC(O)CCCCC(=O)O (centres undefined) | 7 µM |
| CCCCCCCCC#CCCCCCCCC(=O)O | 5 µM |
| CCCCCCCCC#CC#CC1OC1CCCC(=O)O (centres undefined) | 5 µM |
| CCCCCCCCC#CC#CCCCCCC(=O)O | 5 µM |
| CCCCCCCCC#CC#C/C=C/CCCC(=O)O | 0.5 µM |
| CCCCC#CC#CCCCCCC(=O)O | 3 µM |
| CCCCCCCCC#CC#C/C=C\CCCC(=O)O | 1.5 µM |
